Test system: AT-rich palindromic dodecanucleotide dsDNA (DNA, duplex) CGCAAATTTGCG
Test: photoluminescence titration
Conditions: dsDNA stock 10 mM Tris, 0.1 mM EDTA pH 8.0, 25 °C

binding (dsDNA (0-8 µM) into 8 µM compound in D2O) | binding (dsDNA (0-10 µM) into 10 µM compound in D2O) | SMILES
yes |  | CN1CCN(c2ccc3nc(-c4ccc5nc(-c6ccc(O)cc6)[nH]c5c4)[nH]c3c2)CC1
 | yes | Cn1ccc(=Nc2ccc(NC(=O)c3ccc(N=c4ccn(C)c5ccc([N+](=O)[O-])cc45)cc3)cc2)cc1
